System: CFTR mediated chloride current in Primary CF airway epithelial cells
Experiment: Equivalent current assay in primary CF airway epithelial cells (NAUC)
Type: cell-based
Settings: 24 h treatment, stimulated with forskolin and VX770, normalized to positive control 3 μM VX809
Protocol: Primary CF airway epithelial cells were obtained from the UNC Cystic Fibrosis Tissue Procurement and Cell Culture Core. The cells are grown at 37° C. in a Heracell 150i incubator using growth media (BEGM, Fischer). Cells were then transferred to differentiation media (ALI, UNC) for a minimum of 4 weeks on coated Costar snapwells. Two days before the Ussing assay the mucus on the apical surface of the cells was aspirated after incubating with 200 μL of differentiation Media for at least thirty (30) minutes. One day before the Ussing assay test compounds were added to the basolateral surface of the cells at various test concentrations dissolved in DMSO. Duplicate wells were prepared giving a n=3 or n=4 protocol.
Cells were treated for 24 hours with various combinations and concentrations of the test articles, reference standard (3 μM VX809, positive control). Compounds stock solutions were prepared in DMSO and diluted 1/1000 into ALI media to their final assay concentration. Cells were treated with combination solutions (2 mL of each dilution) and incubated at 37° C. for 24 h.
For the equivalent current assay, cells on four Transwell (24-well) plates were treated. Each Transwell plate was filled with 200 μl of HBS on the apical surface and 2 ml on the basolateral surface. Plates were placed horizontally in a heated mount at 37° C., and equilibrated for several minutes. Resting current was measured for 15 min and then blocked by the apical addition of 5 μM benzamil. After 20 min, 10 μM forskolin and 1 μM VX770 were added to both the apical and basolateral side to stimulate CFTR. An increase in chloride current is seen as an upward deflection of the trace. After another 30 min, CFTR-172 (a CFTR inhibitor, 2 μM) and/or bumetanide (20 μM) was added to block CFTR mediated chloride current.
The raw data, current vs. time for the Ussing chamber (sampling interval: 10 s) and voltage vs. time and resistance vs. time for the equivalent current assay (sampling interval: 5 minutes) were transferred to Excel (Microsoft Office Professional, version 14.0.7106.5003) for analysis. CFTR specific current was measured as the average amplitude of the increase in current elicited upon addition forskolin and ending upon addition of the CFTR channel specific blocker CFTR-172. This average is equivalent to the sum of the average forskolin activated and the average VX770-potentiated currents. The average current measured in vehicle (0.1% DMSO) treated cells, Iv, was subtracted from the current for the test article, ITA, or from the corrector reference standard VX809 (3 μM ISTD. For replicate measurements, the average vehicle subtracted response for the test article, was normalized to the average vehicle subtracted […] response of the reference corrector VX809 (3 μM). INSC=(ITA−IV)(ave)/(ISTD−IV)(ave) (Equation 1)
A second endpoint, for the equivalent current assay, evaluated was NAUC, the normalized area under the curve (AUC) measuring the response after addition of forskolin and VX770 to the time point right before the addition of the CFTR inhibitor. The AUC is effectively the average response multiplied by the duration of the response. The AUC of the test article, AUCTA was then corrected by subtracting the average vehicle response, AUCV,ave over the same time range, and normalized as for the inhibitor-sensitive current to the difference of the corrector reference standard VX809 (3 μM VX809r,ave and the vehicle response: NAUCTA=[AUCTA−AUCV,ave]/[AUCVx809r,ave−AUCV,ave](Equation 2).
The normalized value for DMSO is 0.0 and for VX-809 alone is 1.0. Combinations of compounds with VX-809 that give normalized values greater than 1.0 show activity in the combination assay. A value of 2 means the test compound doubles the effect to VX-809 alone.
Experiments were run with a minimum of n=4 replicates per concentration. […]

## O=C(NC[C@H]1CCCO1)c1cc(-c2ccc(F)cc2)on1 [Example 30]
  NAUC (normalized area under the curve), Test Conc 3 uM: ++ (NAUC “++” refers to an observed NAUC 170-140% of positive control)
  NAUC (normalized area under the curve), Test Conc 10 uM: ++ (NAUC “++” refers to an observed NAUC 170-140% of positive control)

## CC(C)CCNC(=O)c1cc(-c2ccc(F)cc2)on1 [Example 31]
  NAUC (normalized area under the curve), Test Conc 3 uM: ++ (NAUC “++” refers to an observed NAUC 170-140% of positive control)
  NAUC (normalized area under the curve), Test Conc 10 uM: ++ (NAUC “++” refers to an observed NAUC 170-140% of positive control)

## O=C(NCC(c1ccccc1)c1ccccc1)c1cc(-c2ccc(F)cc2)on1 [Example 32]
  NAUC (normalized area under the curve), Test Conc 3 uM: + (NAUC “+” refers to an observed NAUC <140% of positive control)
  NAUC (normalized area under the curve), Test Conc 10 uM: + (NAUC “+” refers to an observed NAUC <140% of positive control)

## O=C(NCC1CCCCC1)c1cc(-c2ccc(F)cc2)on1 [Example 33]
  NAUC (normalized area under the curve), Test Conc 3 uM: + (NAUC “+” refers to an observed NAUC <140% of positive control)
  NAUC (normalized area under the curve), Test Conc 10 uM: + (NAUC “+” refers to an observed NAUC <140% of positive control)

## O=C(NCCOc1ccccc1)c1cc(-c2ccc(F)cc2)on1 [Example 34]
  NAUC (normalized area under the curve), Test Conc 3 uM: + (NAUC “+” refers to an observed NAUC <140% of positive control)
  NAUC (normalized area under the curve), Test Conc 10 uM: + (NAUC “+” refers to an observed NAUC <140% of positive control)

## O=C(NCC(F)(F)F)c1cc(-c2ccc(F)cc2)on1 [Example 35]
  NAUC (normalized area under the curve), Test Conc 3 uM: ++ (NAUC “++” refers to an observed NAUC 170-140% of positive control)
  NAUC (normalized area under the curve), Test Conc 10 uM: +++ (NAUC “+++” refers to an observed NAUC >170% of positive control)

## O=C(NCC1CC1)c1cc(-c2ccc(F)cc2)on1 [Example 36, N-(cyclopropylmethyl)-5-(4-fluorophenyl)isoxazole-3-carboxamide]
  NAUC (normalized area under the curve), Test Conc 3 uM: ++ (NAUC “++” refers to an observed NAUC 170-140% of positive control)
  NAUC (normalized area under the curve), Test Conc 10 uM: +++ (NAUC “+++” refers to an observed NAUC >170% of positive control)

## O=C(NCCN1CCOCC1)c1cc(-c2ccc(F)cc2)on1 [Example 37, 5-(4-fluorophenyl)-N-(2-morpholinoethyl)isoxazole-3-carboxamide]
  NAUC (normalized area under the curve), Test Conc 3 uM: + (NAUC “+” refers to an observed NAUC <140% of positive control)
  NAUC (normalized area under the curve), Test Conc 10 uM: ++ (NAUC “++” refers to an observed NAUC 170-140% of positive control)

## O=C(NCCCCC(=O)N1CCC1)c1cc(-c2ccccc2)on1 [Example 38, N-(5-(azetidin-1-yl)-5-oxopentyl)-5-phenylisoxazole-3-carboxamide]
  NAUC (normalized area under the curve), Test Conc 3 uM: +++ (NAUC “+++” refers to an observed NAUC >170% of positive control)
  NAUC (normalized area under the curve), Test Conc 10 uM: +++ (NAUC “+++” refers to an observed NAUC >170% of positive control)

## CN1CCN(C(=O)CCCCNC(=O)c2cc(-c3ccccc3)on2)CC1 [Example 43, N-(5-(4-methylpiperazin-1-yl)-5-oxopentyl)-5-phenylisoxazole-3-carboxamide]
  NAUC (normalized area under the curve), Test Conc 3 uM: +++ (NAUC “+++” refers to an observed NAUC >170% of positive control)
  NAUC (normalized area under the curve), Test Conc 10 uM: +++ (NAUC “+++” refers to an observed NAUC >170% of positive control)

## O=C(NCCC(=O)N1CCC1)c1cc(-c2ccccc2)on1 [Example 44, N-(3-(azetidin-1-yl)-3-oxopropyl)-5-phenylisoxazole-3-carboxamide]
  NAUC (normalized area under the curve), Test Conc 3 uM: +++ (NAUC “+++” refers to an observed NAUC >170% of positive control)
  NAUC (normalized area under the curve), Test Conc 10 uM: +++ (NAUC “+++” refers to an observed NAUC >170% of positive control)

## CN1CCN(C(=O)CCNC(=O)c2cc(-c3ccccc3)on2)CC1 [Example 48]
  NAUC (normalized area under the curve), Test Conc 3 uM: +++ (NAUC “+++” refers to an observed NAUC >170% of positive control)
  NAUC (normalized area under the curve), Test Conc 10 uM: +++ (NAUC “+++” refers to an observed NAUC >170% of positive control)

## O=C(NCCC(=O)N1CCC1)c1cc(-c2ccc(F)cc2)no1 [Example 51, N-(3-(azetidin-1-yl)-3-oxopropyl)-3-(4-fluorophenyl)isoxazole-5-carboxamide]
  NAUC (normalized area under the curve), Test Conc 3 uM: ++ (NAUC “++” refers to an observed NAUC 170-140% of positive control)
  NAUC (normalized area under the curve), Test Conc 10 uM: +++ (NAUC “+++” refers to an observed NAUC >170% of positive control)

## CN1CCN(C(=O)CCNC(=O)c2cc(-c3ccc(F)cc3)no2)CC1 [Example 52, 3-(4-fluorophenyl)-N-(3-(4-methylpiperazin-1-yl)-3-oxopropyl)isoxazole-5-carboxamide]
  NAUC (normalized area under the curve), Test Conc 3 uM: ++ (NAUC “++” refers to an observed NAUC 170-140% of positive control)
  NAUC (normalized area under the curve), Test Conc 10 uM: +++ (NAUC “+++” refers to an observed NAUC >170% of positive control)

## O=C(NCCCCC(=O)N1CCC1)c1cc(-c2ccc(F)cc2)no1 [Example 53, N-(5-(azetidin-1-yl)-5-oxopentyl)-3-(4-fluorophenyl)isoxazole-5-carboxamide]
  NAUC (normalized area under the curve), Test Conc 3 uM: ++ (NAUC “++” refers to an observed NAUC 170-140% of positive control)
  NAUC (normalized area under the curve), Test Conc 10 uM: +++ (NAUC “+++” refers to an observed NAUC >170% of positive control)

## CN1CCN(C(=O)CCCCNC(=O)c2cc(-c3ccc(F)cc3)no2)CC1 [Example 54, 3-(4-fluorophenyl)-N-(5-(4-methylpiperazin-1-yl)-5-oxopentyl)isoxazole-5-carboxamide]
  NAUC (normalized area under the curve), Test Conc 3 uM: ++ (NAUC “++” refers to an observed NAUC 170-140% of positive control)
  NAUC (normalized area under the curve), Test Conc 10 uM: +++ (NAUC “+++” refers to an observed NAUC >170% of positive control)

## O=C(NCCCCC(=O)N1CCC1)c1cc(-c2ccccc2)no1 [Example 55, N-(5-(azetidin-1-yl)-5-oxopentyl)-3-phenylisoxazole-5-carboxamide]
  NAUC (normalized area under the curve), Test Conc 3 uM: ++ (NAUC “++” refers to an observed NAUC 170-140% of positive control)
  NAUC (normalized area under the curve), Test Conc 10 uM: +++ (NAUC “+++” refers to an observed NAUC >170% of positive control)

## CN1CCN(C(=O)CCCCNC(=O)c2cc(-c3ccccc3)no2)CC1 [Example 59]
  NAUC (normalized area under the curve), Test Conc 3 uM: +++ (NAUC “+++” refers to an observed NAUC >170% of positive control)
  NAUC (normalized area under the curve), Test Conc 10 uM: +++ (NAUC “+++” refers to an observed NAUC >170% of positive control)

## O=C(NCCC(=O)N1CCC1)c1cc(-c2ccccc2)no1 [Example 60, N-(3-(azetidin-1-yl)-3-oxopropyl)-3-phenylisoxazole-5-carboxamide]
  NAUC (normalized area under the curve), Test Conc 3 uM: +++ (NAUC “+++” refers to an observed NAUC >170% of positive control)
  NAUC (normalized area under the curve), Test Conc 10 uM: +++ (NAUC “+++” refers to an observed NAUC >170% of positive control)

## CN1CCN(C(=O)CCNC(=O)c2cc(-c3ccccc3)no2)CC1 [Example 63]
  NAUC (normalized area under the curve), Test Conc 3 uM: +++ (NAUC “+++” refers to an observed NAUC >170% of positive control)
  NAUC (normalized area under the curve), Test Conc 10 uM: +++ (NAUC “+++” refers to an observed NAUC >170% of positive control)

From patent US9855249B2, “Isoxazole compounds and methods for the treatment of cystic fibrosis” (FLATLEY DISCOVERY LAB, LLC, priority 2014, dated 2018)
